Experimental data: the supplement of paper PMC10307832

Legend:
Test in all cases: relative viability (nuclei count vs DMSO), 5 days (fraction); higher = more cells survive
XMD14-99 + Navitoclax = compound: CN1CCN(CC1)C2=CC(=C(C=C2)NC3=NC(=C(S3)C(=O)C4=C(C=CC=C4Cl)Cl)N)OC [XMD14-99] + CC1(C)CCC(c2ccc(Cl)cc2)=C(CN2CCN(c3ccc(C(=O)NS(=O)(=O)c4ccc(N[C@H](CCN5CCOCC5)CSc5ccccc5)c(S(=O)(=O)C(F)(F)F)c4)cc3)CC2)C1 [Navitoclax] (partner 0.5 µM)
Method in brief: (§1)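 Lung cancer cell lines in 1536-well plates were dosed by pin tool the day after seeding, either with one drug alone or with a fixed anchor-drug dose plus five library-drug doses (not always all listed) in √10 steps. After 5 days, cells were fixed and their nuclei stained in one step (final 0.05% Triton X-100, 1% formaldehyde, 1 ug/ml Hoechst), then counted on 4× images. Relative viability is the nuclei count in treated wells divided by that in vehicle wells. Values are medians of duplicate plates.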

XMD14-99 + Palbociclib = compound: CN1CCN(CC1)C2=CC(=C(C=C2)NC3=NC(=C(S3)C(=O)C4=C(C=CC=C4Cl)Cl)N)OC [XMD14-99] + CC(=O)c1c(C)c2cnc(Nc3ccc(N4CCNCC4)cn3)nc2n(C2CCCC2)c1=O [Palbociclib] (partner 0.5 µM)
Method in brief: as §1

AZD1208 + Crizotinib = compound: N[C@@H]1CCCN(c2c(/C=C3\SC(=O)NC3=O)cccc2-c2ccccc2)C1 [AZD1208] + C[C@@H](Oc1cc(-c2cnn(C3CCNCC3)c2)cnc1N)c1c(Cl)ccc(F)c1Cl [Crizotinib] (partner 1 µM)
Method in brief: as §1

AZD1208 + Linsitinib = compound: N[C@@H]1CCCN(c2c(/C=C3\SC(=O)NC3=O)cccc2-c2ccccc2)C1 [AZD1208] + C[C@]1(O)C[C@@H](c2nc(-c3ccc4ccc(-c5ccccc5)nc4c3)c3c(N)nccn32)C1 [Linsitinib] (partner 1 µM)
Method in brief: as §1

Cell Line	relative viability (XMD14-99 + Navitoclax; first compound 0.08 µM)	relative viability (XMD14-99 + Navitoclax; first compound 0.8 µM)	relative viability (XMD14-99 + Navitoclax; first compound 2.53 µM)	relative viability (XMD14-99 + Navitoclax; first compound 8 µM)	relative viability (XMD14-99 + Palbociclib; first compound 0.08 µM)	relative viability (XMD14-99 + Palbociclib; first compound 0.8 µM)	relative viability (XMD14-99 + Palbociclib; first compound 2.53 µM)	relative viability (XMD14-99 + Palbociclib; first compound 8 µM)	relative viability (AZD1208 + Crizotinib; first compound 0.08 µM)	relative viability (AZD1208 + Crizotinib; first compound 0.253 µM)	relative viability (AZD1208 + Crizotinib; first compound 0.8 µM)	relative viability (AZD1208 + Crizotinib; first compound 2.53 µM)	relative viability (AZD1208 + Crizotinib; first compound 8 µM)	relative viability (AZD1208 + Linsitinib; first compound 0.08 µM)	relative viability (AZD1208 + Linsitinib; first compound 0.253 µM)	relative viability (AZD1208 + Linsitinib; first compound 0.8 µM)	relative viability (AZD1208 + Linsitinib; first compound 2.53 µM)	relative viability (AZD1208 + Linsitinib; first compound 8 µM)
HCC-366	1.01	1.03	0.986	0.863	0.452	0.383	0.346	0.306	0.479	0.593	0.536	0.452	0.246	0.626	0.588	0.5	0.558	0.439
HCC-827	1.06	0.99	0.793	0.873	0.506	0.406	0.451	0.446	0.93	0.992	0.931	0.915	0.936	0.965	1.03	1.01	1.01	1.02
HOP-62	1.12	1.16	1.03	0.951	0.435	0.41	0.538	0.443	0.991	0.869	0.895	0.883	0.969	1.06	0.843	1.05	1.11	0.623
IA-LM	0.732	0.56	0.449	0.295	–	–	–	–	0.827	0.724	0.797	0.669	0.748	0.625	0.827	0.524	0.529	0.69
LC-2-ad	0.533	0.386	0.273	0.295	0.525	0.446	0.466	0.487	0.488	0.401	0.421	0.383	0.392	0.803	0.673	0.833	0.801	0.894
LCLC-97TM1	0.43	0.455	0.268	0.382	0.197	0.239	0.321	0.203	0.464	0.515	–	0.318	0.294	0.156	0.206	–	0.133	0.132
LCLC-103H	–	–	–	–	0.487	0.491	0.421	0.481	1.03	1.11	1.05	1.31	1.03	1.04	1.09	1.06	1.11	0.891
LK-2	0.767	0.883	1.02	0.91	0.572	0.804	0.655	0.611	0.28	0.211	0.212	0.275	0.252	0.43	0.523	0.302	0.263	0.268
LOU-NH91	0.662	0.758	0.685	0.613	0.509	0.548	0.575	0.499	0.728	0.728	0.727	0.693	0.721	0.953	0.934	0.855	0.949	0.822
NCI-H358	–	–	–	–	0.0998	0.147	0.132	0.124	0.537	0.559	0.499	0.566	0.438	0.675	0.604	0.564	0.71	0.605
NCI-H522	–	–	–	–	0.858	1.06	0.906	1.05	–	–	–	–	–	–	–	–	–	–
NCI-H596	1.03	0.956	0.702	0.88	–	–	–	–	0.853	1.04	0.837	0.955	0.711	0.97	1.02	0.975	1.01	0.714
NCI-H650	–	–	–	–	0.341	0.337	0.34	0.38	0.704	0.723	0.577	0.576	0.643	0.877	0.83	0.784	0.482	0.71
NCI-H661	–	–	–	–	0.406	0.452	0.386	0.358	1.02	1	–	1	1.08	0.505	0.568	0.519	0.416	0.483
NCI-H1299	1.08	1.03	0.994	0.825	–	–	–	–	0.958	1	0.933	0.969	0.963	1.03	1.13	0.997	1.01	1.08
NCI-H1395	1.06	1.11	1.09	0.902	0.58	0.678	0.688	0.602	–	–	–	–	–	0.989	1.15	0.979	1.07	0.881
NCI-H1563	–	–	–	–	–	–	–	–	0.877	0.81	0.928	0.924	0.8	1.18	1.19	1.18	1.26	1.16
NCI-H1648	–	–	–	–	0.261	0.267	0.268	0.289	–	–	–	–	–	–	–	–	–	–
NCI-H1650	1.15	1.44	0.992	1.04	0.389	0.328	0.345	0.306	0.954	0.972	1.04	0.921	0.71	–	–	–	–	–
NCI-H1703	1.06	1.11	0.933	0.719	–	–	–	–	0.365	0.53	0.579	0.594	0.461	0.751	0.56	0.602	0.651	0.508
NCI-H1793	0.424	0.411	0.461	0.386	0.286	0.316	0.314	0.284	–	–	–	–	–	0.765	0.804	0.564	0.967	0.583
NCI-H2170	0.574	0.594	0.644	0.603	0.426	0.4	0.425	0.395	1.18	1.2	1.01	1.12	0.836	–	–	–	–	–
NCI-H2342	–	–	–	–	0.564	0.614	0.576	0.544	–	–	–	–	–	–	–	–	–	–
SW 900	–	–	–	–	0.57	0.567	0.514	0.359	–	–	–	–	–	–	–	–	–	–
